# Test results published in PubChem BioAssay AID743510 (Broad Institute, 2014).
# Activity calls are given as the source filed them.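 Rule for the calls: active = compounds that block bursicon-driven reporter light with an IC50 below a set limit; inactive = IC50 above that limit.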
# Target: Bursicon receptor LGR2 (rickets), Drosophila melanogaster
# Assay: inhibition of bursicon-stimulated LGR2 cAMP signaling – cell-based, HEK293, CRE-luciferase, beta-gal normalized, dry powder, dose response (AID 743510)
# Conditions: antagonist luminescence
row,IC50,Structure (SMILES)
1,> 35 µM (inactive),C[C@@H]1CN([C@H](C)CO)C(=O)c2cc(NC(=O)C3CCCCC3)ccc2O[C@@H](C)CCCCO[C@@H]1CN(C)C(=O)Nc1cccc2ccccc12
2,> 35 µM (inactive),C[C@@H]1CCCCO[C@@H](CN(C)C(=O)Nc2cccc3ccccc23)[C@@H](C)CN([C@H](C)CO)C(=O)c2cc(NC(=O)C3CCCCC3)ccc2O1
3,> 35 µM (inactive),C[C@@H]1CCCCO[C@H](CN(C)C(=O)Nc2cccc3ccccc23)[C@@H](C)CN([C@@H](C)CO)C(=O)c2cc(NC(=O)C3CCCCC3)ccc2O1
4,< 35 µM,C[C@H]1CCCCO[C@@H](CN(C)C(=O)Nc2cccc3ccccc23)[C@@H](C)CN([C@@H](C)CO)C(=O)c2cc(NC(=O)C3CCCCC3)ccc2O1
5,> 35 µM (inactive),C[C@H]1CCCCO[C@H](CN(C)C(=O)Nc2cccc3ccccc23)[C@@H](C)CN([C@@H](C)CO)C(=O)c2cc(NC(=O)C3CCCCC3)ccc2O1
6,> 35 µM (inactive),C[C@@H]1CCCCO[C@@H](CN(C)C(=O)Nc2cccc3ccccc23)[C@H](C)CN([C@H](C)CO)C(=O)c2cc(NC(=O)C3CCCCC3)ccc2O1
7,> 35 µM (inactive),C[C@@H]1CCCCO[C@H](CN(C)C(=O)Nc2cccc3ccccc23)[C@H](C)CN([C@H](C)CO)C(=O)c2cc(NC(=O)C3CCCCC3)ccc2O1
8,< 35 µM,C[C@H](CO)N1C[C@H](C)[C@H](CN(C)C(=O)Nc2cccc3ccccc23)OCCCC[C@H](C)Oc2ccc(NC(=O)C3CCCCC3)cc2C1=O
9,> 35 µM (inactive),C[C@@H]1CCCCO[C@@H](CN(C)C(=O)Nc2cccc3ccccc23)[C@@H](C)CN([C@@H](C)CO)C(=O)c2cc(NC(=O)C3CCCCC3)ccc2O1
10,> 35 µM (inactive),C[C@H](CO)N1C[C@H](C)[C@@H](CN(C)C(=O)Nc2cccc3ccccc23)OCCCC[C@H](C)Oc2ccc(NC(=O)C3CCCCC3)cc2C1=O

# Second part, the compound before the results:
row,Structure (SMILES),IC50
1,C[C@@H]1CN([C@@H](C)CO)C(=O)c2cc(NC(=O)C3CCCCC3)ccc2O[C@@H](C)CCCCO[C@H]1CN(C)C(=O)Nc1cccc2ccccc12,< 35 µM
2,C[C@H](CO)N1C[C@H](C)[C@H](CN(C)C(=O)Nc2ccc(F)cc2)OCCCC[C@H](C)Oc2ccc(NC(=O)C3CC3)cc2C1=O,> 35 µM (inactive)
3,C[C@@H]1CCCCO[C@H](CN(C)C(=O)Nc2cccc3ccccc23)[C@H](C)CN([C@@H](C)CO)C(=O)c2cc(NC(=O)C3CCCCC3)ccc2O1,> 35 µM (inactive)
4,C[C@@H]1CN([C@H](C)CO)C(=O)c2cc(NC(=O)C3CCCCC3)ccc2O[C@@H](C)CCCCO[C@H]1CN(C)C(=O)Nc1cccc2ccccc12,> 35 µM (inactive)
5,C[C@@H]1CN([C@@H](C)CO)C(=O)c2cc(NC(=O)C3CCCCC3)ccc2O[C@@H](C)CCCCO[C@@H]1CN(C)C(=O)Nc1cccc2ccccc12,> 35 µM (inactive)
6,C[C@@H]1CCCCO[C@@H](CN(C)C(=O)Nc2cccc3ccccc23)[C@H](C)CN([C@@H](C)CO)C(=O)c2cc(NC(=O)C3CCCCC3)ccc2O1,> 35 µM (inactive)
7,C[C@@H]1CCCCO[C@H](CN(C)C(=O)Nc2cccc3ccccc23)[C@@H](C)CN([C@H](C)CO)C(=O)c2cc(NC(=O)C3CCCCC3)ccc2O1,> 35 µM (inactive)
8,C[C@H](CO)N1C[C@H](C)[C@H](CN(C)C(=O)Nc2ccccc2F)OCCCC[C@H](C)Oc2ccc(NC(=O)C3CCCCC3)cc2C1=O,< 35 µM
9,Cc1ccc(NC(=O)N(C)C[C@@H]2OCCCC[C@H](C)Oc3ccc(NC(=O)C4CCCCC4)cc3C(=O)N([C@H](C)CO)C[C@@H]2C)cc1,< 35 µM
10,C[C@H](CO)N1C[C@H](C)[C@H](CN(C)C(=O)Nc2cccc(F)c2)OCCCC[C@H](C)Oc2ccc(NC(=O)C3CCCCC3)cc2C1=O,< 35 µM
11,C[C@H](CO)N1C[C@H](C)[C@H](CN(C)C(=O)Nc2ccc(F)cc2)OCCCC[C@H](C)Oc2ccc(NC(=O)C3CCOCC3)cc2C1=O,> 35 µM (inactive)
12,C[C@H](CO)N1C[C@H](C)[C@H](CN(C)C(=O)Nc2ccc(F)cc2)OCCCC[C@H](C)Oc2ccc(NC(=O)C3CCCCCC3)cc2C1=O,< 35 µM
13,C[C@H](CO)N1C[C@H](C)[C@H](CN(C)C(=O)Nc2ccc(F)cc2)OCCCC[C@H](C)Oc2ccc(NC(=O)C3CCCC3)cc2C1=O,< 35 µM
14,C[C@H](CO)N1C[C@H](C)[C@H](CN(C)C(=O)Nc2ccc3ccccc3c2)OCCCC[C@H](C)Oc2ccc(NC(=O)C3CCCCC3)cc2C1=O,< 35 µM
15,CC(=O)Nc1ccc2c(c1)C(=O)N([C@H](C)CO)C[C@H](C)[C@H](CN(C)C(=O)Nc1ccc(F)cc1)OCCCC[C@H](C)O2,> 35 µM (inactive)
16,C[C@H](CO)N1C[C@H](C)[C@H](CN(C)C(=O)Nc2ccc(Cl)cc2)OCCCC[C@H](C)Oc2ccc(NC(=O)C3CCCCC3)cc2C1=O,< 35 µM
